From patent US20260125374A1, “PI3K-ALPHA INHIBITORS AND METHODS OF MAKING AND USING THE SAME” (Relay Therapeutics, Inc., priority 2021, published 2026)
≈ marks a conversion by molar mass, not a printed value. Entries after “also recorded” stand apart in the source; their conditions may differ.

Experiments:
Assay type in all cases: physicochemical
[1] = Solution stability at 25° C.
Experimental: Solution stability of I-1 Form A and I-3 Form A was investigated in methanol and THF/ACN (2:1, v/v) at 25° C. Target concentration is 4 mg/mL.
Accurate 4 mg of I-1 Form A, 5.13 mg of I-3 Form A was weighed into a 8 mL glass vial, respectively. The salt amount used is equivalent to 4 mg anhydrous free form.

[2] = Suspension stability at 25° C.; details: for Chiral purity / Purity / Solubility / pH / Chiral purity (solids) / Chiral purity, liquid / Chiral purity, solid / Solubility (μg/mL): 25° C.; for Initial chiral purity: before suspension; for Solubility (μg/mL): LOQ: 0.25 μg/mL
Experimental: Suspension stability: Suspension stability of I-1 Form A and the 2 salt candidates was investigated in pure water, 0.5% (w/w) Tween 80 aqueous solution and 0.5% (w/w) MC (400 cP)+2% (w/w) Vitamin E TPGS aqueous solution at 25° C. for 2 h and 24 h. Target concentration was 2 mg/mL.
To confirm whether racemization occurs for the 2 salts in 0.5% (w/w) MC (400 cP)+2% (w/w) Vitamin E TPGS aqueous solution, the suspension stability in this vehicle was repeated at target concentration of 10 mg/mL. […] The hygroscopicity of these salts were further investigated.
Accurate 10 mg of I-1 Form A, 12.83 mg of I-3 Form A, 11.58 mg of I-4 Form A was weighed into a 8 mL glass vial, respectively. 5 mL of suspension vehicle was added, respectively. The salt amount used is equivalent to 10 mg anhydrous free form. These suspensions were stirred at 25° C. with 400 rpm. These suspensions were taken out at 2 hours and 24 hours, then centrifuged at 14,000 rpm for 5 min. The supernatants were analyzed by HPLC and pH meter. Solids obtained (wet cakes) were characterized by XRPD and HPLC to determine the chiral purity.
Accurate […] of I-3 Form A, 46.3 mg of I-4 Form A was weighed into a 8 mL glass vial, respectively. 4 mL of solubility medium was added, respectively. The salt amount used is equivalent to 40 mg anhydrous free form. 4 mL of the aqueous vehicle (0.5% (w/w) MC (400 cP) and 2% (w/w) Vitamin E TPGS in water) was added, respectively. These suspensions were stirred at 25° C. with 400 rpm. These suspensions were taken out at 2 hours and 24 hours, then centrifuged at 14,000 rpm for 5 min. The supernatants were analyzed by HPLC for the solubility and chiral purity and analyzed by pH meter. Solids obtained (wet cakes) were characterized by XRPD and HPLC for chiral purity.

[3] = Salt screening (XRPD, chiral purity of hits); details: for Chiral purity (by HPLC) / Crystallinity (By XRPD): crystalline hits of salt screening
Experimental: Based on the pKa of I-1 free form, 23 counter ions were selected as salt/cocrystal forming agents. Methanol, acetone and isopropyl acetate were used as screening solvents. 1.0 equivalent of selected counter ions/coformers was applied for salt screening. Slurry equilibration, slow evaporation and anti-solvent addition were used as crystallization methods. In total, about 70 screening experiments were conducted.
About 50 mg of I-1 Form A were added to a suitable amount of solvent and 1.0 equivalent of counter ions were added under stirring at 50° C. for 2 hours and then at 25° C. for at least 12 hours. MeOH, acetone and IPAc were used as screening solvents.
Obtained suspensions were taken out and centrifuged. Solids obtained were analyzed by XRPD and salt screening results were summarized in Table 5.1, Table 5.2, and Table 5.3.

[4] = 25° C., MeOH, 0 h, listed as I-3 Form A
[5] = 25° C., MeOH, 6 h, listed as I-3 Form A
[6] = 25° C., MeOH, 24 h, listed as I-3 Form A
[7] = 25° C., THF/ACN(2:1, v/v), 0 h, listed as I-3 Form A
[8] = 25° C., THF/ACN(2:1, v/v), 6 h, listed as I-3 Form A
[9] = 25° C., THF/ACN(2:1, v/v), 24 h, listed as I-3 Form A
[10] = 2 mg/mL, 0.5%(w/w) MC(400 cP) and 2%(w/w) Vitamin E TPGS in water, 2 h, listed as I-3 Form A
[11] = 2 mg/mL, 0.5%(w/w) MC(400 cP) and 2%(w/w) Vitamin E TPGS in water, 24 h, listed as I-3 Form A
[12] = 2 mg/mL, 0.5%(w/w) Tween 80 in water, 2 h, listed as I-3 Form A
[13] = 2 mg/mL, 0.5%(w/w) Tween 80 in water, 24 h, listed as I-3 Form A
[14] = 2 mg/mL, Pure water, 2 h, listed as I-3 Form A
[15] = 2 mg/mL, Pure water, 24 h, listed as I-3 Form A
[16] = 10 mg/mL, 0.5(w/w) MC(400 cP) and 2%(w/w) Vitamin E TPGS in water, 2 h, listed as I-3 Form A
[17] = 10 mg/mL, 0.5(w/w) MC(400 cP) and 2%(w/w) Vitamin E TPGS in water, 24 h, listed as I-3 Form A
[18] = 2 mg/mL, 0.5%(w/w) MC(400 cP) and 2%(w/w) Vitamin E TPGS in water, 2 h, listed as I-4 Form A
[19] = 2 mg/mL, 0.5%(w/w) MC(400 cP) and 2%(w/w) Vitamin E TPGS in water, 24 h, listed as I-4 Form A
[20] = 2 mg/mL, 0.5%(w/w) Tween 80 in water, 2 h, listed as I-4 Form A
[21] = 2 mg/mL, 0.5%(w/w) Tween 80 in water, 24 h, listed as I-4 Form A
[22] = 2 mg/mL, Pure water, 2 h, listed as I-4 Form A
[23] = 2 mg/mL, Pure water, 24 h, listed as I-4 Form A
[24] = 10 mg/mL, 0.5(w/w) MC(400 cP) and 2%(w/w) Vitamin E TPGS in water, 2 h, listed as I-4 Form A
[25] = 10 mg/mL, 0.5(w/w) MC(400 cP) and 2%(w/w) Vitamin E TPGS in water, 24 h, listed as I-4 Form A

In the case of `N#Cc1c(-c2cc(NC(=O)c3cc(F)cc(C(F)(F)F)c3)c3c(c2)C(=O)N[C@H]3c2cc(F)ccc2Cl)ccc2ncnn12` [Compound I-3], the Chemical purity [1, 4] is reported as 99.3%, the Chiral purity [1, 4] is reported as 98.3% and the Chemical purity [1, 5] is reported as 99.3%. The Chiral purity [1, 5] was 98.3%, the Chemical purity [1, 6] was 99.4% and the Chiral purity [1, 6] was 98.3%. For the same compound, the Chemical purity [1, 7] was 99.2%, the Chiral purity [1, 7] was 98.3% and the Chemical purity [1, 8] was 99.3%. It also gave a Chiral purity [1, 8] of 98.3%, a Chemical purity [1, 9] of 99.4% and a Chiral purity [1, 9] of 98.3%. For the same compound, the Initial chiral purity ([1]; before dissolution, listed as I-3 Form A) was “Initial chiral purity: 98.6%”, the racemization in solution ([1]; methanol and THF/ACN (2:1, v/v), 25° C., 4 mg/mL) was “no racemization” and the “chemical stability in solution” value ([1]; methanol and THF/ACN (2:1, v/v), 25° C., at least 24 h, 4 mg/mL, listed as I-3 Form A) was “chemically stable; also recorded: good solution stability”. For the same compound, the “physical form of residual solids (XRPD)” value ([2]; 0.5% MC (400 cP)+2% Vitamin E TPGS, 10 mg/mL, 2 h sample, listed as I-3 Form A) was “converted to a hydrate (I-3 Form B)”, the “physical form of residual solids (XRPD)” value ([2]; 0.5% MC (400 cP)+2% Vitamin E TPGS, 10 mg/mL, 2 h sample, listed as tosylate salt) was “a form change” and the “physical form of residual solids (XRPD)” value ([2]; 0.5% MC (400 cP)+2% Vitamin E TPGS, 10 mg/mL, 24 h sample) was “remained unchanged”. The “Chiral purity” value [2, 10] was 86.4%, the Purity [2, 10] was 99.3% and the “Solubility” value [2, 10] was 1220.9 µg/mL (≈ 2.01 mM). For the same compound, the pH [2, 10] was 2.76, the “Chiral purity” value [2, 11] was 98.3% and the Purity [2, 11] was 99.3%. The “Solubility” value [2, 11] was 1990.7 µg/mL (≈ 3.27 mM), the pH [2, 11] was 2.62 and the “Chiral purity” value [2, 12] was 95.8%. The “Chiral purity (solids)” value [2, 12] was 98.0%, the Purity [2, 12] was 99.4% and the “Solubility” value [2, 12] was 244.6 µg/mL (≈ 0.402 mM). The pH [2, 12] was 3.11, the “Chiral purity” value [2, 13] was 98.5% and the “Chiral purity (solids)” value [2, 13] was 94.2%. The Purity [2, 13] was 99.4%, the “Solubility” value [2, 13] was 17.9 µg/mL (≈ 0.0294 mM) and the pH [2, 13] was 2.63. For the same compound, the “Chiral purity (solids)” value [2, 14] was 98.3%, the Purity [2, 14] was 99.6% and the pH [2, 14] was 5.59. The “Chiral purity (solids)” value [2, 15] was 98.3%, the Purity [2, 15] was 99.5% and the pH [2, 15] was 2.85. For the same compound, the “Chiral purity, liquid” value [2, 16] was 99.4%;, the “Chiral purity, solid” value [2, 16] was 97.9% and the “Solubility” value [2, 16] was 3433.2 µg/mL (≈ 5.64 mM). For the same compound, the pH [2, 16] was 2.30, the “Chiral purity, liquid” value [2, 17] was 99.4%; and the “Chiral purity, solid” value [2, 17] was 98.3%. For the same compound, the Purity [2, 17] was 99.7%, the “Solubility” value [2, 17] was 3083.9 µg/mL (≈ 5.06 mM) and the pH [2, 17] was 2.17. The Initial chiral purity ([2]; listed as I-3 Form A) was “Initial chiral purity: 98.6%”, the “Salt screening result (slurry crystallization)” value ([3]; 1.0 equiv. p-toluenesulfonic acid, Acetone) was “+ (I-3 Form A) (Salt hits)” and the “Salt screening result (slurry crystallization)” value ([3]; 1.0 equiv. p-toluenesulfonic acid, Isopropyl acetate) was “+ (I-3 Form A) (Salt hits)”. The “Salt screening result (slurry crystallization)” value ([3]; 1.0 equiv. p-toluenesulfonic acid, MeOH) was “+ (I-3 Form A) (Salt hits)”, the “chiral stability in salt screening and scale up solvents” value ([3]; MeOH, acetone and IPAc, acetone) was “good chiral stability” and the “Chiral purity (by HPLC)” value ([3]; listed as I-3 Form A) was 99.8%. For the same compound, the “Crystallinity (By XRPD)” value ([3]; listed as I-3 Form A) was “High” and the “Chiral purity of salt screening solid” value ([3]; slurry, 1.0 equiv. p-toluenesulfonic acid, Acetone) was “Chiral purity: 99.8%”.
In the case of `N#Cc1c(-c2cc(NC(=O)c3cc(F)cc(C(F)(F)F)c3)c3c(c2)C(=O)N[C@H]3c2cc(F)ccc2Cl)ccc2ncnn12` [Compound I-4], the “physical form of residual solids after the test (XRPD)” value ([2]; 0.5% MC (400 cP)+2% Vitamin E TPGS, target 10 mg/mL) is reported as “converted to amorphous form”, the Purity [2, 18] is reported as 99.2% and the “Solubility” value [2, 18] is reported as 1210.7 µg/mL (≈ 1.99 mM). The pH [2, 18] was 2.72, the Purity [2, 19] was 99.6% and the “Solubility” value [2, 19] was 2018.8 µg/mL (≈ 3.32 mM). The pH [2, 19] was 2.61, the “Chiral purity (solids)” value [2, 20] was 99.7% and the Purity [2, 20] was 99.5%. The “Solubility” value [2, 20] was 342.6 µg/mL (≈ 0.563 mM), the pH [2, 20] was 2.78 and the “Chiral purity (solids)” value [2, 21] was 95.8%. For the same compound, the Purity [2, 21] was 99.6%, the pH [2, 21] was 2.63 and the “Solubility (μg/mL)” value ([2]; 2 mg/mL, Pure water, 2 h) was “<LOQ”. For the same compound, the “Chiral purity (solids)” value [2, 22] was 99.7%, the Purity [2, 22] was 99.5% and the pH [2, 22] was 2.81. The “Solubility (μg/mL)” value ([2]; 2 mg/mL, Pure water, 24 h) was “<LOQ”, the “Chiral purity (solids)” value [2, 23] was 99.7% and the Purity [2, 23] was 99.4%. The pH [2, 23] was 2.61, the Purity ([2]; 10 mg/mL, 0.5(w/w) MC(400 cP) and 2%(w/w) Vitamin E TPGS in water, 2 h) was 99.7% and the “Chiral purity, liquid” value [2, 24] was 100%;. For the same compound, the “Chiral purity, solid” value [2, 24] was 99.8%, the pH [2, 24] was 1.89 and the “Chiral purity, liquid” value [2, 25] was 99.8%;. For the same compound, the “Chiral purity, solid” value [2, 25] was 99.7%, the Purity [2, 25] was 99.6% and the pH [2, 25] was 1.86. For the same compound, the solubility at 2 h ([2]; 25 °C, aqueous with cosolvent or surfactant or cyclodextrin, thermodynamic from solid, 10 mg/mL, 0.5(w/w) MC(400 cP) and 2%(w/w) Vitamin E TPGS in water, 2 h) was 3950 µg/mL (≈ 6.48 mM), the solubility at 24 h ([2]; 25 °C, aqueous with cosolvent or surfactant or cyclodextrin, thermodynamic from solid, 10 mg/mL, 0.5(w/w) MC(400 cP) and 2%(w/w) Vitamin E TPGS in water, 24 h) was 3810 µg/mL (≈ 6.26 mM) and the Initial chiral purity ([2]; listed as I-4 Form A) was “Initial chiral purity: 99.5%”. For the same compound, the solubility at 24 h ([2]; suspension in 0.5% (w/w) Tween 80 in water, 25 °C, aqueous with cosolvent or surfactant or cyclodextrin, thermodynamic from solid, 2 mg/mL, 0.5%(w/w) Tween 80 in water, 24 h) was 16.3 µg/mL (≈ 0.0268 mM), the “Salt screening result (anti-solvent)” value ([3]; 1.0 equiv. methanesulfonic acid, Acetone/MTBE) was “+ (I-4 Form A) (Salt hits)” and the “Chiral purity of salt screening solid” value ([3]; anti-solvent, 1.0 equiv. methanesulfonic acid, Acetone/MTBE) was “Chiral purity: 98.3%”. The “Chiral purity (by HPLC)” value ([3]; listed as I-4 Form A) was 98.3% and the “Crystallinity (By XRPD)” value ([3]; listed as I-4 Form A) was “Low”.
